Measurements reported in ChEMBL document CHEMBL1138082, “Structural requirements for the substrates of the H+/peptide cotransporter PEPT2 determined by three-dimensional quantitative structure-activity relationship analysis” (J Med Chem, 2006).
Residues, ends and D or L forms follow the SMILES beside them.

Columns and labels:
[1] = Selectivity for rat PEPT2 over human PEPT1
[2] = target: T1, Solute carrier family 15 member 2 (Rattus norvegicus, UniProt Q63424); assay: Displacement of [14C]Gly-Sar from rat PEPT2 in SKPT0193 C1.2 cells; type: cell-based
T1 sequence (Q63424 whole entry): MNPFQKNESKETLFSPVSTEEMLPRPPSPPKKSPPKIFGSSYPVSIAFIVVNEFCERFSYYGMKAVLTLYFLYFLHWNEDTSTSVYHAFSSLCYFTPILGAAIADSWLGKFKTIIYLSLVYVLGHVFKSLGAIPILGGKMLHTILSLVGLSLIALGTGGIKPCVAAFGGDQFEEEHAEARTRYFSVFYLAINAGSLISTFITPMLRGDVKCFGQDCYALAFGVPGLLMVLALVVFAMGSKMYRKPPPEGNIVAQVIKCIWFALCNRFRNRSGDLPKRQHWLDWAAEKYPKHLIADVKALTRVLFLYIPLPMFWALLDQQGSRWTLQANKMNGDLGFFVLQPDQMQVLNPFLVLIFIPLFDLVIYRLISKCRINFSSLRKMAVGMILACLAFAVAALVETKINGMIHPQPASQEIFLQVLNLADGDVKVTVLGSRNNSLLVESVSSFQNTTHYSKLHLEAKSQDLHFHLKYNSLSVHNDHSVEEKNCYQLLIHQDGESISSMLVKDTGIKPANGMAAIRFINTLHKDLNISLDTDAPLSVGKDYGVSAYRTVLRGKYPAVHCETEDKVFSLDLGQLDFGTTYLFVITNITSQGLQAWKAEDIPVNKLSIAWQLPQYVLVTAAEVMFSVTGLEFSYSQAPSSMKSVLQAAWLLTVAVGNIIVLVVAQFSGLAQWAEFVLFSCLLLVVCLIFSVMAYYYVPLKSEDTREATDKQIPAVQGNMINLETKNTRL

[3] = target: T2, Solute carrier family 15 member 1 (Homo sapiens, UniProt P46059); assay: Displacement of [14C]Gly-Sar from human PEPT1 in Caco-2 cells; type: cell-based
T2 sequence (P46059 whole entry): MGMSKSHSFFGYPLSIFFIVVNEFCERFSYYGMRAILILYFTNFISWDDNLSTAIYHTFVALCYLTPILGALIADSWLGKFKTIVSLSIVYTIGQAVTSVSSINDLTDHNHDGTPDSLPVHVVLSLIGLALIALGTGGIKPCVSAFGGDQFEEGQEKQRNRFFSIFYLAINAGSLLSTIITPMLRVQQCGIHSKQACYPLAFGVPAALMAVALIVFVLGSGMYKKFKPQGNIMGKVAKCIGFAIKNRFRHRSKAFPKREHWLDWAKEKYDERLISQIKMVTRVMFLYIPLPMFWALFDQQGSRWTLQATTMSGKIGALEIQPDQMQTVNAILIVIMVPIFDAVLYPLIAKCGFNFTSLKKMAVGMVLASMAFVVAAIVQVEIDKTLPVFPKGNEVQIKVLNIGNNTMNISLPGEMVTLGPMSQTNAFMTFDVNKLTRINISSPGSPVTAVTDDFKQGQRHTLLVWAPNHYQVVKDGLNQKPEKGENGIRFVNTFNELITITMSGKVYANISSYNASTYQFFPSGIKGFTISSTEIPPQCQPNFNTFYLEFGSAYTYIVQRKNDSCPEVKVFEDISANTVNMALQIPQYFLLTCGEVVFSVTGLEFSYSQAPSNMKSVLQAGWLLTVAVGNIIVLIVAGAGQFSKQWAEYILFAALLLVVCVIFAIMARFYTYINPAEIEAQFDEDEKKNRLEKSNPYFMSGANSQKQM

SMILES	log selectivity ratio [1]	Ki [2]	Ki [3]
C[C@H](NC(=O)[C@@H](N)Cc1c[nH]c2ccccc12)C(=O)O (H-Trp-Ala-OH)	1.7	4 µM	
CC(C)C[C@H](N)C(=O)N[C@@H](C)C(=O)N[C@@H](CCCNC(=N)N)C(=O)O (H-Leu-Ala-Arg-OH)		1200 µM	100 µM
CC(C)C[C@H](N)C(=O)N[C@@H](C)C(=O)N[C@@H](CCCN=C(N)N)C(=O)O (H-Leu-Ala-Arg-OH)	-1.1		
C[C@H](NC(=O)[C@H](Cc1ccccc1)NC(=O)c1ccccc1)C(=O)O	0.7	3.7 µM	20 µM
